Laboratory results as given in PubChem BioAssay (NCI).
Where “and” joins values, the source holds several entries; their conditions need not be identical. Equal values may be shown once.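 In this assay, cells in 96-well plates receive the compound at five concentrations for 48 hours. Endpoints are linearly interpolated between the surrounding concentrations. GI50 marks 50% less growth. The concentration for full growth arrest is given as TGI.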

Experiments:
Assay in all cases: NCI-60 cell line screen, 48 h
UACC-257 melanoma = tested on: UACC-257 melanoma
OVCAR-4 ovarian = tested on: OVCAR-4 ovarian
NCI-H226 lung = tested on: NCI-H226 lung
SW-620 colon = tested on: SW-620 colon
HOP-62 NSCLC = tested on: HOP-62 NSCLC
K-562 leukemia = tested on: K-562 leukemia
UO-31 renal = tested on: UO-31 renal
HCT-116 colon = tested on: HCT-116 colon
KM12 colon = tested on: KM12 colon
MDA-MB-231 breast = tested on: MDA-MB-231 breast

Row | Structure (SMILES) | GI50 (UACC-257 melanoma) | TGI (UACC-257 melanoma) | GI50 (OVCAR-4 ovarian) | TGI (OVCAR-4 ovarian) | GI50 (NCI-H226 lung) | TGI (NCI-H226 lung) | GI50 (SW-620 colon) | TGI (SW-620 colon) | GI50 (HOP-62 NSCLC) | TGI (HOP-62 NSCLC) | GI50 (K-562 leukemia) | TGI (K-562 leukemia) | GI50 (UO-31 renal) | TGI (UO-31 renal) | GI50 (HCT-116 colon) | TGI (HCT-116 colon) | GI50 (KM12 colon) | TGI (KM12 colon) | GI50 (MDA-MB-231 breast) | TGI (MDA-MB-231 breast)
1 | COc1ccc(/C(C)=C(\c2ccc(Cl)cc2)c2ccc(OCCN3CCCCC3)cc2)cc1F | 3.1 µM | 7.04 µM | 2.99 µM | 8.99 µM | 4.35 µM | > 16.7 µM | 2.34 µM | 5.35 µM | 3.34 µM | 6.58 µM | 0.698 µM | 5.93 µM | 2.05 µM | 4.21 µM | 2.04 µM | 5.14 µM | 1.97 µM | 6.23 µM | 3.04 µM | 5.71 µM
2 | CC(CCC/C=C/CCCN(C)C(=N)N)CC(C)C1OC(=O)C(C)C(O)/C=C/C(C)C(O)C(C)C(O)C(C)C(O)CCCC(O)CC2(O)OC(CC(OC(=O)CC(=O)O)CC(O)CC(O)C(C)C(O)/C=C/C=C/C1C)CC(O)C2O (stereo not given) | 2.16 µM and 1.98 µg/mL | 4.29 µM and 6.29 µg/mL | 2.65 µM and 7.59 µg/mL | 6.66 µM and 18.4 µg/mL | 6.21 µM and 14.1 µg/mL | 24.2 µM and 26.9 µg/mL | 2.02 µM and 9.83 µg/mL | 3.7 µM and 21.7 µg/mL | 4.29 µM and 10.5 µg/mL | 17.1 µM and 21.6 µg/mL | 3.13 µM and 10.4 µg/mL | 7.16 µM and 75 µg/mL | 3.36 µM and 14.5 µg/mL | 8.6 µM and 26.1 µg/mL | 2.52 µM and 9.15 µg/mL | 6.13 µM and 24.4 µg/mL | 1.88 µM and 2.62 µg/mL | 3.37 µM and 9.79 µg/mL | 5.59 µM and 8.55 µg/mL | 19 µM and 19.9 µg/mL
3 | COc1ccc(-c2nccn2-c2cc(OC)c(OC)c(OC)c2)cc1 | 73.1 µM | > 100 µM | 15.3 µM | > 100 µM | 14.6 µM | > 100 µM | 1.34 µM | > 100 µM | 13.7 µM | > 100 µM | 1.5 µM | > 100 µM | 9.38 µM | > 93 µM | 1.9 µM | > 100 µM | 0.451 µM | > 100 µM | 7.62 µM | 90.3 µM
4 | NC(=O)NOCC1NC(=O)NC1=O (stereo not given) |  | > 100 µM |  | > 100 µM |  | > 100 µM |  | > 100 µM |  | > 100 µM |  | > 100 µM |  | > 100 µM |  | > 100 µM |  | > 100 µM |  | > 100 µM
5 | C/C=C\C(C)=C/C(C)C(=O)CC(O)CC1CC(=O)NC(=O)C1 (stereo not given) |  | > 100 µM |  | > 100 µM |  | > 100 µM |  | > 100 µM |  | > 100 µM |  | > 100 µM |  | > 100 µM |  | > 100 µM |  | > 100 µM |  | > 100 µM
6 | O=C(NC(c1ccccc1)C(O)C(=O)OCc1ccc2c(c1)C(=O)c1ccccc1C2=O)c1ccccc1 (stereo not given) |  | > 72 µM |  | 4.99 µM |  | 18.7 µM |  | > 100 µM |  | 9.82 µM |  | > 100 µM |  | 10.1 µM |  | 39.1 µM |  | > 97.4 µM |  | 30.6 µM
7 | COc1ccc(N2CCN(CC(=O)N3CCN(c4nnc(-c5ccc(Cl)cc5)c(-c5ccc(Cl)cc5)n4)CC3)CC2)cc1 | 18.9 µM | > 100 µM | 8.8 µM | > 100 µM | > 100 µM | > 100 µM | 46.3 µM | > 100 µM | > 100 µM | > 100 µM | 5.8 µM | > 100 µM | 2.8 µM | > 100 µM | 3.96 µM | > 100 µM | 4.86 µM | > 100 µM | 35.4 µM | > 100 µM
